Literature values, collected in US20260069708A1 (priority 2022, published 2026).

Settings: reportedly

## COc1cccc2c1C(=O)c1c(O)c3c(c(O)c1C2=O)C[C@@](O)(C(=O)CO)C[C@@H]3O[C@H]1C[C@H](N)[C@H](O)[C@H](C)O1 [Dox, doxorubicin]
  fold lower IC50 than irinotecan: 10-100 fold
